We go through three molecules from US9113625B2, “Adjuvant for agricultural chemicals” (CJB Industries, Inc., priority 2009, dated 2015).

Molecules are shown by their SMILES.

Common to all, as to type: in vivo
In assay [1] the test system is fireblight on Southern Crepe Myrtle. Description: Effectiveness of bactericide streptomycin at controlling fireblight. The settings on record: infected plants sprayed until wet; rated after two days; adjuvant (B) at 500:1 dilution. The procedure: This example evaluated the effectiveness of the bactericide streptomycin for the control of fireblight on Southern Crepe Myrtle. The bactericide was mixed with water in a spray tank at the listed rate treatment (A), or with a permeabilizer (B). The infected plants were treated with the bactericide by spraying until wet and the degree of control of the fireblight was evaluated. The ratings were made after two days on the rate required for control.

In assay [2] the test system is Bacterial Leaf Spot (Xanthomonas campestris). Description: Effectiveness of a bactericide on bacterial leaf spot on tomatoes. Particulars: inoculated tomato plants; Copper 2#/acre, no adjuvant; rated after two weeks. The procedure: This example evaluated the effectiveness of the bactericide copper hydroxide for the control of bacterial leaf spot on tomatoes. The tomato plants were inoculated with the bacteria. The bactericide was mixed with water in a spray tank at the listed rate treatment (A), or with a permeabilizer (B) and the degree of control of the leaf spot was evaluated. The ratings were made after two weeks on the per cent leaves infected.

Assay [3] deals with Early Blight (Alternaria solani). In words: Evaluation of fungicide in the treatment of Early Blight on tomatoes. Particulars: inoculated tomato plants; Chlorothalonil 2.5 pt/ac, no adjuvant; rated after one week. Here is the method:
This example evaluated the effectiveness of the fungicide chlorothalonil for the control of Early Blight on tomatoes. The fungicide was mixed with water in a spray tank at the listed rate treatment (A), or with a permeabilizer (B) and the degree of control of the Early Blight was evaluated. The tomato plants were inoculated with the fungi. The ratings were made after one week on the per cent leaves infected with Alternaria and also the number with severe damage—necrosis.

For the molecule `[H]/N=C(/N)N[C@H]1[C@H](O)[C@@H](O)[C@H](O[C@@H]2O[C@@H](C)[C@](O)(C=O)[C@H]2O[C@@H]2O[C@@H](CO)[C@H](O)[C@@H](O)[C@@H]2NC)[C@@H](N/C(N)=N\[H])[C@@H]1O` [Streptomycin, streptomycin], the “Level of Control (rate required for control)” value in assay [1] is 60 ppm.

`[Cu+2].[OH-].[OH-]` [Copper, copper hydroxide]: the “% Leaves Infected” value in assay [2] came to 63%.

`N#Cc1c(Cl)c(Cl)c(Cl)c(C#N)c1Cl` [Chlorothalonil, chlorothalonil]: in assay [3], the “Infected Leaflets” value worked out at 60%, the “Infected Leaves” value is on record as 42% and the “Leaves with >50% Necrosis” value was 42%.
